Experiment [1] has as its target T1, GST-tagged human ROCK1 catalytic domain 1-477 (Homo sapiens, UniProt Q13464).
T1 construct: human ROCK1 catalytic domain 1-477 from Carna Biosciences (cat #01-109); purchased Carna Biosciences 01-109; host or cells: baculovirus expression system
The experiment is described as follows: Isolated Enzyme Assay, ROCK1 (LANCE Ultra ULight-CREBtide FRET). It counts as biochemical. Conditions: 30 μM highest concentration tested, read-out: Results from Isolated Enzyme Assay IC50 (μM) ROCK1. The protocol: (§1) Exemplary compounds were tested for ability to inhibit Rho-associated protein kinase isoform 1 (ROCK1) and Rho-associated protein kinase isoform 2 (ROCK2). Assay procedures and results are described below.
(§2) Part I—Procedure for Determining ROCK Inhibition Ability of Test Compounds Using an Isolated Enzyme Assay
(§3) Protein constructs were purified from a baculovirus expression system. The peptide substrate was fluorescent LANCE® Ultra ULight-CREBtide: […] (PerkinElmer, # TRF0107-D). Kinase reactions were carried out in a 10 μL volume in 384-well plates: 50 nM ULight-CREBtide substrate, 2 nM constitutively active ROCK1 or ROCK2 kinase, and test compound in DMSO (or DMSO only for controls) were diluted into assay buffer containing 50 mM Tris-HCl (pH=7.5), 10 mM MgCl2, 1 mM EGTA, 0.01% Tween-20, and 2 mM DTT such that the final concentration of DMSO was 0.5%. After a 90 minute incubation at room temperature on a shaker table, the kinase reaction was stopped by addition of 10 mM EDTA, and phosphorylation of the substrate was detected by adding 1 nM LANCE® Ultra Europium-anti-phospho-CREB (ser133) antibody (PerkinElmer, # TRF0200-D) and incubating for 60 minutes on a shaker at room temperature. The fluorescence resonance energy transfer (FRET) signals were read and analyzed on an Envision™ 2103 Multilabel Reader (Perkin Elmer). The concentration of test compound required to inhibit substrate phosphorylation by 50% (the IC50) was calculated by non-linear regression using GraphPad PRIZM.

For experiment [2], the target named is T2, GST-tagged human ROCK2 catalytic domain 1-553 (Homo sapiens, UniProt O75116).
T2 construct: GST-tagged human ROCK2 catalytic domain 1-553 from Carna Biosciences (Cat #01-110); purchased Carna Biosciences 01-110; host or cells: baculovirus expression system
T2 sequence (O75116 1-553): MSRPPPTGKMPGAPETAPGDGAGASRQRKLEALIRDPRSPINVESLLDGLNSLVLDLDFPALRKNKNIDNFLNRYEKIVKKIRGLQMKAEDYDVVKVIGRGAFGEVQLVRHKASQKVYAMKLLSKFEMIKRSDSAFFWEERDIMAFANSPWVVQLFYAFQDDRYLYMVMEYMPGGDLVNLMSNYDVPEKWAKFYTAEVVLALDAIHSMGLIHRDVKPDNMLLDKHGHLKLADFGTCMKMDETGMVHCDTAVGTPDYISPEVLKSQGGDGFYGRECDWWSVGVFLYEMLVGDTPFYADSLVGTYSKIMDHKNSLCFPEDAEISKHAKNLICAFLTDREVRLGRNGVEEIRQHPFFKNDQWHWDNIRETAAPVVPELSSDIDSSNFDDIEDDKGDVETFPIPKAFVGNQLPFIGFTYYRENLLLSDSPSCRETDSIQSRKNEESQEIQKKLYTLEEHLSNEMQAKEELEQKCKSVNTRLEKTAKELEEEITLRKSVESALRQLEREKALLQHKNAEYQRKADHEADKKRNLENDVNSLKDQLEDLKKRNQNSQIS
The experiment is described as follows: Isolated Enzyme Assay, ROCK2 (LANCE Ultra ULight-CREBtide FRET). It counts as biochemical. Conditions: 30 μM highest concentration tested, read-out: Results from Isolated Enzyme Assay IC50 (μM) ROCK2. As for the experimental part: as §1, §2, §3
In general terms: In TR-FRET formats the signal depends on donor and acceptor labels being close together.

Like-named read-outs stand apart in the source and are kept apart here. Where only a bound is given, the exact number is not on record here.

T1 sequence (Q13464 1-477): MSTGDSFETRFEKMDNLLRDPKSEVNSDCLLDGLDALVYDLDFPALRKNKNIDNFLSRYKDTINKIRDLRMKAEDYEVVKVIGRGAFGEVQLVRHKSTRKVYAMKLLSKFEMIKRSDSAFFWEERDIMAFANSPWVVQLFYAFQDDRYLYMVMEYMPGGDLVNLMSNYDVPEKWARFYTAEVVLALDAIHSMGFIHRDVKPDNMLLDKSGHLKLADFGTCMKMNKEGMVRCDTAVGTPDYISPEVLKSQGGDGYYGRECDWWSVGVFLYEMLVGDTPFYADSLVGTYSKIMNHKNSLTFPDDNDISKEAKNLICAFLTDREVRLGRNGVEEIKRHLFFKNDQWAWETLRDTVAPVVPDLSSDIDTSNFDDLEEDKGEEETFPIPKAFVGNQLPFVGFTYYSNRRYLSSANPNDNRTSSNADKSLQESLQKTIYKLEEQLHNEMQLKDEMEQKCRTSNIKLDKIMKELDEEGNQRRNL

A word on the IC50: it is the point on the concentration scale where inhibition reaches its midpoint. Take `CC(C)N1CCN(c2cc(-c3nsc(Nc4ccc5[nH]ncc5c4Cl)n3)cn(C)c2=O)C1=O` [IV-3]: the results for the 50% inhibitory concentration (IC50) in experiment [1] (isolated enzyme assay) and in experiment [2] (isolated enzyme assay) were 1 to 15 µM and less than 1 µM, respectively.

Take `O=C1CCCN1c1cc(-c2nsc(Nc3ccc4[nH]ncc4c3Cl)n2)cn2ccnc12` [IV-92]: the 50% inhibitory concentration (IC50) in experiment [1] (isolated enzyme assay) and in experiment [2] (isolated enzyme assay) was more than 30 µM in each case.

Consider `O=C(Nc1cncc(-c2nsc(Nc3ccc4[nH]ncc4c3Cl)n2)c1)c1cncs1` [IV-18], for which the half-maximal inhibitory concentration (IC50) in experiment [1] (isolated enzyme assay) was more than 30 µM; in experiment [2] (isolated enzyme assay), less than 1 µM.

On to `O=C(c1cccc(-c2nsc(Nc3ccc4[nH]ncc4c3Cl)n2)c1)N1CCCC1` [IV-86], for which the IC50 in experiment [1] (isolated enzyme assay) and in experiment [2] (isolated enzyme assay) was 1 to 15 µM each time.

As to `NC[C@@H]1CCCN1c1nsc(Nc2ccc3[nH]ncc3c2Cl)n1` [IV-109], the half-inhibitory concentration (IC50) in experiment [1] (isolated enzyme assay) was 15 to 30 µM; in experiment [2] (isolated enzyme assay), more than 30 µM.

As for `Cn1nccc1C(=O)NC[C@@H]1CCN(c2nsc(Nc3ccc4[nH]ncc4c3Cl)n2)C1` [IV-94], the IC50 in experiment [1] (isolated enzyme assay) and in experiment [2] (isolated enzyme assay) was more than 30 µM each time.

As to `Cc1coc(-c2cccc(-c3nsc(Nc4cc5cn[nH]c5cc4F)n3)c2)n1` [IV-93], the 50% inhibitory concentration (IC50) in experiment [1] (isolated enzyme assay) and in experiment [2] (isolated enzyme assay) was more than 30 µM throughout.

`Cc1nc2ccccc2c(=O)n1-c1cccc(-c2nsc(Nc3ccc4[nH]ncc4c3Cl)n2)c1` [IV-111]: the IC50 in experiment [1] (isolated enzyme assay) is more than 30 µM; in experiment [2] (isolated enzyme assay), 1 to 15 µM.

As for `N#Cc1c(Nc2nc(-c3cccc([N+](=O)[O-])c3)ns2)ccc2[nH]ncc12` [IV-100], the IC50 in experiment [1] (isolated enzyme assay) and in experiment [2] (isolated enzyme assay) was more than 30 µM each time.

Consider `O=C(c1cccc(-c2nsc(Nc3ccc4[nH]ncc4c3Cl)n2)c1)N1CCOCC1` [IV-80], for which the IC50 in experiment [1] (isolated enzyme assay) and in experiment [2] (isolated enzyme assay) was 1 to 15 µM in each case.

In the case of `Cc1n[nH]c2ccc(Nc3nc(-c4cncc(NC(=O)c5ccnn5C)c4)ns3)cc12` [Compound A-7], the IC50 in experiment [1] (isolated enzyme) and in experiment [2] (isolated enzyme) was more than 30 µM throughout.

In the case of `CS(=O)(=O)c1cccc(-c2nsc(Nc3ccc4[nH]ncc4c3Cl)n2)c1` [IV-99], the IC50 in experiment [1] (isolated enzyme assay) and in experiment [2] (isolated enzyme assay) was more than 30 µM throughout.

In the case of `Cc1cc(NC(=O)c2cc(C)nn2C)cc(-c2nsc(Nc3ccc4[nH]ncc4c3Cl)n2)n1` [IV-37], the values for the IC50 in experiment [1] (isolated enzyme assay) and in experiment [2] (isolated enzyme assay) were more than 30 µM and less than 1 µM, respectively.

Turning to `O=c1ccccn1-c1cccc(-c2nsc(Nc3ccc4[nH]ncc4c3Cl)n2)c1` [IV-53], the half-inhibitory concentration (IC50) in experiment [1] (isolated enzyme assay) and in experiment [2] (isolated enzyme assay) was 1 to 15 µM in each case.

In the case of `CN(C)CCn1cnc2c(-c3nsc(Nc4ccc5[nH]ncc5c4Cl)n3)cccc21` [IV-67], the IC50 in experiment [1] (isolated enzyme assay) and in experiment [2] (isolated enzyme assay) was 1 to 15 µM throughout.

Take `O=C(Nc1cccc(-c2nsc(Nc3ccc4[nH]ncc4c3)n2)c1)c1cccnc1` [Compound A-2]: the values for the IC50 in experiment [1] (isolated enzyme) and in experiment [2] (isolated enzyme) were more than 30 µM and less than 1 µM, respectively.

Take `Cc1nn(C(F)F)cc1S(=O)(=O)Nc1cccc(-c2nsc(Nc3ccc4[nH]ncc4c3Cl)n2)c1` [IV-98]: the IC50 in experiment [1] (isolated enzyme assay) and in experiment [2] (isolated enzyme assay) was more than 30 µM in each case.

For `O=S(=O)(Nc1cccc(-c2nsc(Nc3ccc4[nH]ncc4c3Cl)n2)c1)c1cccnc1` [IV-40], the IC50 in experiment [1] (isolated enzyme assay) was more than 30 µM; in experiment [2] (isolated enzyme assay), 1 to 15 µM.

As to `Cn1cc(-c2nsc(Nc3ccc4[nH]ncc4c3Cl)n2)cc(NC(=O)c2cnccn2)c1=O` [IV-1], the half-maximal inhibitory concentration (IC50) in experiment [1] (isolated enzyme assay) was more than 30 µM; in experiment [2] (isolated enzyme assay), less than 1 µM.

For `O=C(Cn1cc(Cl)cn1)Nc1cccc(-c2nsc(Nc3ccc4[nH]ncc4c3Cl)n2)c1` [IV-104], the IC50 in experiment [1] (isolated enzyme assay) and in experiment [2] (isolated enzyme assay) was more than 30 µM each time.

For `Cc1n[nH]c2ccc(Nc3nc(-c4cccc(NC(=O)c5ccnn5C)c4)ns3)cc12` [Compound A-8], the results for the IC50 in experiment [1] (isolated enzyme) and in experiment [2] (isolated enzyme) were more than 30 µM and less than 1 µM, respectively.

`Cc1cc(=O)n(-c2cc(-c3nsc(Nc4ccc5[nH]ncc5c4Cl)n3)ccn2)n1C` [IV-23]: the IC50 in experiment [1] (isolated enzyme assay) and in experiment [2] (isolated enzyme assay) was less than 1 µM in each case.

Take `Cn1nccc1C(=O)Nc1cncc(-c2nsc(Nc3ccc4[nH]ncc4c3Cl)n2)c1` [Compound A-6]: the IC50 is more than 30 µM in experiment [1] (isolated enzyme) and less than 1 µM in experiment [2] (isolated enzyme).

Consider `Cn1cc(-c2nsc(Nc3ccc4[nH]ncc4c3Cl)n2)cc(N2CCCC2=O)c1=O` [IV-11], for which the values for the IC50 in experiment [1] (isolated enzyme assay) and in experiment [2] (isolated enzyme assay) were more than 30 µM and 1 to 15 µM, respectively.

On to `Cn1nccc1C(=O)NC[C@@H]1CCCN1c1nsc(Nc2ccc3[nH]ncc3c2Cl)n1` [IV-110], for which the values for the concentration for half-maximal inhibition (IC50) in experiment [1] (isolated enzyme assay) and in experiment [2] (isolated enzyme assay) were more than 30 µM and 15 to 30 µM, respectively.

For `Cc1nc(S(=O)(=O)Nc2cccc(-c3nsc(Nc4ccc5[nH]ncc5c4Cl)n3)c2)cn1C` [IV-41], the 50% inhibitory concentration (IC50) in experiment [1] (isolated enzyme assay) is less than 1 µM; in experiment [2] (isolated enzyme assay) it was 1 to 15 µM.

With `O=C(c1cccc(-c2nsc(Nc3ccc4[nH]ncc4c3Cl)n2)c1)N1CCc2ccccc2C1` [IV-84], the concentration for half-maximal inhibition (IC50) is more than 30 µM in experiment [1] (isolated enzyme assay) and less than 1 µM in experiment [2] (isolated enzyme assay).

Turning to `Cc1c(S(=O)(=O)Nc2cccc(-c3nsc(Nc4ccc5[nH]ncc5c4Cl)n3)c2)cnn1C(F)F` [IV-51], the concentration for half-maximal inhibition (IC50) is 15 to 30 µM in experiment [1] (isolated enzyme assay) and 1 to 15 µM in experiment [2] (isolated enzyme assay).

As to `CP(C)(=O)c1cccc(-c2nsc(Nc3ccc4[nH]ncc4c3Cl)n2)c1` [IV-102], the IC50 in experiment [1] (isolated enzyme assay) and in experiment [2] (isolated enzyme assay) was more than 30 µM throughout.

As to `CN(C)C(=O)c1cccc(-c2nsc(Nc3ccc4[nH]ncc4c3Cl)n2)c1` [IV-87], the half-maximal inhibitory concentration (IC50) in experiment [1] (isolated enzyme assay) is more than 30 µM; in experiment [2] (isolated enzyme assay), 1 to 15 µM.

Consider `O=C1CCCN1c1cc(-c2nsc(Nc3ccc4[nH]ncc4c3Cl)n2)ccn1` [IV-52], for which the IC50 in experiment [1] (isolated enzyme assay) and in experiment [2] (isolated enzyme assay) was less than 1 µM in each case.

`CN1CCN(C(=O)c2cccc(-c3nsc(Nc4ccc5[nH]ncc5c4Cl)n3)c2)CC1` [IV-85]: the 50% inhibitory concentration (IC50) in experiment [1] (isolated enzyme assay) and in experiment [2] (isolated enzyme assay) was 1 to 15 µM each time.

As for `O=C(Nc1cccc(-c2nsc(Nc3ccc4[nH]ncc4c3)n2)c1)c1c[nH]cn1` [Compound A-1], the 50% inhibitory concentration (IC50) in experiment [1] (isolated enzyme) is 1 to 15 µM; in experiment [2] (isolated enzyme), less than 1 µM.

Regarding `O=C(Nc1cc(-c2nsc(Nc3ccc4[nH]ncc4c3Cl)n2)ccn1)c1cocn1` [IV-96], the IC50 in experiment [1] (isolated enzyme assay) and in experiment [2] (isolated enzyme assay) was more than 30 µM in each case.

In the case of `Cc1n[nH]c2ccc(Nc3nc(-c4ccnc(NC(=O)c5ccnn5C)c4)ns3)cc12` [Compound A-5], the IC50 in experiment [1] (isolated enzyme) and in experiment [2] (isolated enzyme) was more than 30 µM each time.

As for `O=c1c2ccccc2ncn1-c1cccc(-c2nsc(Nc3ccc4[nH]ncc4c3Cl)n2)c1` [IV-95], the half-inhibitory concentration (IC50) in experiment [1] (isolated enzyme assay) and in experiment [2] (isolated enzyme assay) was more than 30 µM in each case.

As for `Cn1cc(-c2nsc(Nc3ccc4[nH]ncc4c3Cl)n2)cc(N2CCOC2=O)c1=O` [IV-4], the half-maximal inhibitory concentration (IC50) in experiment [1] (isolated enzyme assay) was more than 30 µM; in experiment [2] (isolated enzyme assay), less than 1 µM.

As for `Cn1cc(-c2nsc(Nc3ccc4[nH]ncc4c3Cl)n2)cc(C(=O)O)c1=O` [IV-91], the concentration for half-maximal inhibition (IC50) in experiment [1] (isolated enzyme assay) and in experiment [2] (isolated enzyme assay) was more than 30 µM each time.

On to `CS(=O)(=O)Nc1cccc(-c2nsc(Nc3ccc4[nH]ncc4c3Cl)n2)c1` [IV-16], for which the IC50 is 1 to 15 µM in experiment [1] (isolated enzyme assay) and less than 1 µM in experiment [2] (isolated enzyme assay).

Consider `O=C(Nc1cncc(-c2nsc(Nc3ccc4[nH]ncc4c3Cl)n2)c1)c1cocn1` [IV-36], for which the concentration for half-maximal inhibition (IC50) in experiment [1] (isolated enzyme assay) was more than 30 µM; in experiment [2] (isolated enzyme assay), less than 1 µM.

These data come from US10556898B2, “Indazolyl-1,2,4-thiadiazolamines and related compounds for inhibition of Rho-associated protein kinase and the treatment of disease” (Lycera Corporation, priority 2016, dated 2020).
